inhibition, IC50 and Ki data for three compounds are collected here from ChEMBL document CHEMBL1833973, “Biological evaluation and docking studies of natural isocoumarins as inhibitors for human kallikrein 5 and 7” (Bioorg Med Chem Lett, 2011).

The target of experiment [1] is T1, Kallikrein-7 (Homo sapiens, UniProt P49862). Briefly: Competitive inhibition of human kallikrein 7 using Abz-KLYSSKQ-EDDnp as substrate by Lineweaver-Burk plot analysis.
Target sequence in this assay (P49862 30-253 limits assumed): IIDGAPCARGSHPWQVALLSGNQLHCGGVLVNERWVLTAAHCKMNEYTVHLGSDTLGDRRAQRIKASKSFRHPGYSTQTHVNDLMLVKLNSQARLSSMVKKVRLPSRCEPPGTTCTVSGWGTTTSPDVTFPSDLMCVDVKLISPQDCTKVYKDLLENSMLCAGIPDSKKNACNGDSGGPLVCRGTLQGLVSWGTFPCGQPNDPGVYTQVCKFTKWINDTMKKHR
Experiment [2] deals with T2, Kallikrein-5 (Homo sapiens, UniProt Q9Y337).
T2 sequence (Q9Y337 whole entry): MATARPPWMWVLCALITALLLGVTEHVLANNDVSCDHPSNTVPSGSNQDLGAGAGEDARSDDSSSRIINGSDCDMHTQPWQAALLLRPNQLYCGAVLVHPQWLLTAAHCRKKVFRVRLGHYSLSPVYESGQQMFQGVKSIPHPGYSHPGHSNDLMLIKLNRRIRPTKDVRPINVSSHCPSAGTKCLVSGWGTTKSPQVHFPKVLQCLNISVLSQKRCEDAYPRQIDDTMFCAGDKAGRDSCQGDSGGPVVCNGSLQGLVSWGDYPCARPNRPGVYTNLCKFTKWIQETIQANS
Briefly: Inhibition of human kallikrein 5 using Abz-KLRSSKQ-EDDnp as substrate by spectrofluorimetric assay.

Experiment [3] has as its target T2, Kallikrein-5. Briefly: Inhibition of human kallikrein 5 using Abz-KLRSSKQ-EDDnp as substrate by Lineweaver-Burk plot analysis.
The target in experiment [4] is T1, Kallikrein-7. Briefly: Inhibition of human kallikrein 7 using Abz-KLYSSKQ-EDDnp as substrate by Lineweaver-Burk plot analysis.
Target sequence in this assay (P49862 whole entry): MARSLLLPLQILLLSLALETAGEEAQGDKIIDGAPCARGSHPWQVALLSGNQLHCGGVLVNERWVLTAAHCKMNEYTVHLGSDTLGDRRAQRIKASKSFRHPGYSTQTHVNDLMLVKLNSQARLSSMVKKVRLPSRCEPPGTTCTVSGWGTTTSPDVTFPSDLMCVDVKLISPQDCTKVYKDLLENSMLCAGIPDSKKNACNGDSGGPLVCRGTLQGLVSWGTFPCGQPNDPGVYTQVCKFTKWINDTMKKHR
The target of experiment [5] is T1, Kallikrein-7. Briefly: Inhibition of human kallikrein 7 using Abz-KLYSSKQ-EDDnp as substrate by spectrofluorimetric assay.
Target sequence in this assay (P49862 whole entry): as above

Calls of active or inactive are those of the source. No cut-off for these calls is given here.

By IC50 is commonly meant the midpoint of a concentration-inhibition curve. Low values mean higher potency, high ones lower potency. A word on the Ki: it is the equilibrium dissociation constant of an inhibitor or competing ligand from its target. A low value points to a stronger hold on the target. Regarding `COc1cc2c(OC)c3cc(C)oc(=O)c3c(O)c2c(O)c1-c1c(OC)cc2c(OC)c3cc(C)oc(=O)c3c(O)c2c1O`, the inhibition result at Kallikrein-7 [1] was “Active”. For the same compound, the IC50 against Kallikrein-5 [2] is 72.9 µM; on Kallikrein-7 [5] it was 112 µM. For the same compound, the values for the Ki on Kallikrein-5 [3] and at Kallikrein-7 [4] were 24.4 µM and 12.2 µM, respectively.
For the compound `COc1cc(O)c2c(O)c3c(=O)oc(C)cc3c(OC)c2c1` [PAEPALANTINE], the IC50 turned out to be 367 µM against Kallikrein-5 [2] and 166 µM on Kallikrein-7 [5]. Besides, the Ki was 47.5 µM on Kallikrein-5 [3] and 70.7 µM at Kallikrein-7 [4].
On to `COc1cc2cc3c(c(O)c2c(O)c1-c1c(OC)cc2cc4c(c(O)c2c1O)C(=O)O[C@H](C)C4)C(=O)O[C@H](C)C3` [VIOXANTHIN], for which the IC50 against Kallikrein-5 [2] amounted to 53.7 µM; at Kallikrein-7 [5], 135 µM. The inhibition constant (Ki) is 22.9 µM at Kallikrein-5 [3] and 37.2 µM on Kallikrein-7 [4].
